Results as given in US5504106A, “Phenyl amidine alkanoic acids and lactones useful as platelet aggregation inhibitors” (G. D. Searle & Co., priority 1994, dated 1996).
Several values for one entry are separate records, joined by “and”; a condition that tells them apart may be missing. Identical values can stand only once. Counter-ions that a name gives are not always drawn.

Test system: Dog PRP
Assay: In-Vitro Platelet Aggregation in PRP (ADP-induced)
Assay type: cell-based
Conditions: dog platelet-rich plasma, ADP-induced aggregation (50 μm final concentration), 37° C.; for IC50: 1 minute preincubation, linear regression of dose response curve; for Dog PRP % Inhibition: Test Concentration 1 × 10^-5
Procedure: Healthy male or female dogs were fasted for 8 hours prior to drawing blood; then 30 ml whole blood was collected using a butterfly needle and 30 cc plastic syringe with 3 ml of 0.129M buffered sodium citrate (3.8%). The syringe was rotated carefully as blood was drawn to mix the citrate. Platelet-rich plasma (PRP) was prepared by centrifugation at 975× g for 3.17 minutes at room temperature, allowing the centrifuge to coast to a stop without braking. The PRP was removed from the blood with a plastic pipette and placed in a plastic capped, 50 ml Corning conical sterile centrifuge tube which was held at room temperature. Platelet poor plasma (PPP) was prepared by centrifuging the remaining blood at 2000× g for 15 minutes at room temperature allowing the centrifuge to coast to a stop without braking. The PRP was adjusted with PPP to a count of 2-3×10^8 platelets per ml. 400 μl of the PRP preparation and 50 μl of the compound to be tested as prepared below or saline were preincubated for 1 minute at 37° C. in a BioData aggregometer (BioData, Horsham, Pa.). 50 μl of adenosine 5'diphosphate (ADP) (50 μm final concentration) was added to the cuvettes and the aggregation was monitored for 1 minute. The test compounds were prepared by the following procedure. The compound was dissolved in 100% ethanol at a concentration of 10^-2 M. It was vortexed for 30 seconds followed by the addition of 1.1 equivalents of 1N NaOH. This solution was mixed for 30 minutes at room temperature. After the 30 minutes of mixing, the compound solution was brought to a working concentration of 10^-3 M with double distilled water. All compounds are tested in duplicate. Results are calculated as follows:
Percent of control= (maximal OD minus initial OD of compound) divided by (maximal OD minus initial OD of control saline)!×100. The % inhibition=100-(percent of control).
The assay results for the representative compounds of the present invention are set forth in Table A. Also in Table A, two readings given in a single box indicate that two trials, rather than a single trial, were run for that particular compound in that particular assay.

[1] = Canis lupus familiaris, Platelet

SMILES	IC50 [1]	Dog PRP % Inhibition	IC50
N=C(N)c1ccc(NC(=O)CC[C@@H]2C[C@H](O)CC(=O)O2)cc1 [N-4-(aminoiminomethyl)phenyl!3,4,5,6-tetrahydro-6-oxo-4S-hydroxy-2H-pyran-2R-propanamide, trifluoroacetate]	0.35 µM	–	–
C=C[C@@H]1CC(=O)O[C@H](CCCCc2ccc(C(=N)N)cc2)C1 (relative stereo) [(±)-cis-6-4-(4-(Aminoiminomethyl)phenyl)butyl!-4-ethenyl-tetrahydro-2H-pyran-2-one, trifluoroacetate]	2.6 µM	100%	–
N=C(N)c1ccc(CCCC[C@@H]2C[C@H](CS(=O)(=O)c3ccccc3)CC(=O)O2)cc1 (relative stereo) [(±)-cis-6-4-4-(aminoiminomethyl)phenyl!butyl!tetrahydro-4-(phenylsulfonyl)methyl!-2H-pyran-2-one, trifluoroacetate]	2.6 µM	100%	–
N=C(N)c1ccc(CCCC[C@@H]2C[C@@H](c3ccccc3)CC(=O)O2)cc1 (relative stereo) [(±)-trans-6-4-4-(Aminoimino)phenyl)butyl!tetrahydro-4-phenyl-2H-pyran-2-one, trifluoroacetate]	–	7%	–
N=C(N)c1ccc(CCCC[C@@H]2C[C@@H](O)CC(=O)O2)cc1 (relative stereo) [(±)-trans-6-4-4-(Aminoiminomethyl)phenyl!butyl!tetrahydro-4-hydroxy-2H-pyran-2-one, trifluoroacetate]	–	36%	–
C[C@@H]1CC(=O)O[C@H](CCCCc2ccc(C(=N)N)cc2)C1 (relative stereo) [(±)-cis-6-4-4-(Aminoiminomethyl)phenyl)butyl!tetrahydro-4-methyl-2H-pyran-2-one, trifluoroacetate]	7.1 µM	74%	–
N=C(N)c1ccc(CCCC[C@@H]2C[C@H](c3cccnc3)CC(=O)O2)cc1 (relative stereo) [(±)-cis-6-4-4-(Aminoiminomethyl)phenyl)butyl!tetrahydro-4-(3-pyridinyl)-2H-pyran-2-one, ditrifluoroacetate]	0.16 µM	100%	–
N=C(N)c1ccc(CCCC[C@@H]2C[C@H](c3ccccc3)CC(=O)O2)cc1 (relative stereo) [(±)-cis-6-4-4-(Aminoiminomethyl)phenyl)butyl!tetrahydro-4-phenyl-2H-pyran-2-one, trifluoroacetate]	4.2 µM	100%	–
N=C(N)c1ccc(CCCC[C@@H]2C[C@H](O)CC(=O)O2)cc1 (relative stereo) [(±)-cis-6-4-4-Aminoiminomethyl)phenyl!butyl!tetrahydro-4-hydroxy-2H-pyran-2-one, trifluoroacetate]	5.3 µM	89% and 96%	4.1 µM
N=C(N)c1ccc(CCCCC2CCCC(=O)O2)cc1 (racemic) [6-4-(4-(aminoiminomethyl)phenyl)butyl)tetrahydro-2H -pyran-2-one]	–	29% and 38%	–
COC(=O)CC1CC(=O)OC(CCCCc2ccc(C(=N)N)cc2)C1 (racemic) [(±)-cis-methyl 2-4-4-(aminoiminomethyl)phenyl!butyl!tetrahydro-6-oxo-2H-pyran-4-acetate]	–	100%	4 µM
N=C(N)c1ccc(NC(=O)CCC2CCCC(=O)O2)cc1 (centres unmarked) [N-4-(aminoiminomethyl)phenyl!tetrahydro-6-oxo-2H-pyran-2-propanamide, trifluoroacetate]	2.9 µM	–	–
